Values of other authors in the CATMoS acute toxicity set (Mansouri et al. 2021).
Where “and” joins values, the source holds several entries; their conditions need not be identical. Equal values may be shown once.

Assay: rat acute oral toxicity
Settings: in vivo
Excerpt: […]The data set underlying the modeling effort for this project was initially compiled by NICEATM and U.S. EPA’s CCTE. Briefly, LD50 data were collected from rat acute oral systemic toxicity tests, including limit tests, ranges/confidence intervals, and discrete LD50 values. The full data set included 21,200 LD50 entries for 15,688 substances. […] Data were reviewed to ensure that LD50 values with obvious errors in the extracted data such as unit conversion errors (e.g., comma and decimal separator misplacements) were either fixed or removed. After this review, 16,209 LD50 values remained. Many of the chemicals represented had multiple LD50 entries, requiring that a single representative value per Chemical Abstracts Service Registry Number (CASRN) identifier be defined to facilitate modeling efforts. Based on ATWG feedback and to define the representative LD50 as a protective value while accounting for the distribution across multiple LD50s, the median of the lowest quartile was computed using only discrete LD50 values (omitting limit test data and range and confidence interval data). A detailed summary of the data compilation is available online on the NICEATM webpage dedicated to the collaborative modeling project (NTP 2020).
[…][…] For categorical designations, limit test and range/confidence interval LD50 data were integrated wherever possible. As such, the number of chemicals with end point values/calls varies across the modeling end points (Table 3) based on whether chemicals had representative LD50 values and/or other data. If a chemical had both, the representative value was used to determine categorical calls rather than limit test data. Some data were useable only for certain end points and categories depending on the thresholds. For example, ranges that spanned multiple hazard categories were considered only for the binary (very toxic/nontoxic) end points and omitted from rendering a determination for hazard category assignment.
[…]The final data set comprising 11,992 chemicals was split into training and evaluation sets […], respectively. This process was performed semirandomly by ordering chemicals based on the five end points (categorical and continuous LD50 values) and partitioning every fourth record into the evaluation set accordingly. This approach was taken to ensure an equivalent distribution of the LD50 values and the different hazard categories between the training and the evaluation sets without supervised sampling of the chemicals based on structures (Figure 1A). The sources of the chemical structures were also kept equivalent between the two sets, with chemical structures obtained from DSSTox, being the highest quality, representing over 75% of each set (Figure 1B).

Compared with `Nc1cc(S(=O)(=O)O)cc2c1C(=O)C(=NNc1ccc(NN=C3C(=O)c4c(O)cc(S(=O)(=O)O)cc4C=C3S(=O)(=O)O)cc1)C(S(=O)(=O)O)=C2`, `O=C(O)Cn1c(=O)n(Cc2ccc(Br)cc2F)c(=O)c2ccc(F)cc21` is 5.6-fold lower in LD50: 12000 mg/kg for the first, 2140 mg/kg for the second.

First: COCc1c(CO)cnc(C)c1O
Second: CCCc1nc(C)cc(OC(=O)N(C)C)n1
The LD50 of the first is 11-fold higher: 2150 mg/kg for the first, 200 mg/kg for the second.

Compared with `C=CC(=O)OCCOC(=O)C=C`, `CCC(CC)COCCOC(=O)CCCCC(=O)OCCOCC(CC)CC` is 11-fold higher in LD50: 300 mg/kg for the first, 3250 mg/kg for the second.

`Cc1cccc2c1C(=O)C(c1c(Cl)cccc1Cl)C2=O` (stereo unspecified) and `Cc1ccc2ccccc2c1N` are within 1.5-fold of each other in LD50: 466 mg/kg for the first, 620 mg/kg for the second.

First: CN(N=O)c1ccc(N=Nc2ccccc2)cc1
Second: Cc1ccccc1N=Nc1c(N)ccc2ccccc12
The LD50 of the first is 10-fold higher: 1200 mg/kg for the first, 120 mg/kg for the second.

First: C=C(C)c1ccc(C(C)(C)N=C=O)cc1
Second: CCOc1ccc(N(C)C(=O)C(C(C)O)N(C)C)cc1 (stereo unspecified)
The LD50 of the first is 3.3-fold higher: 4400 mg/kg for the first, 1350 mg/kg for the second.

`CCCCCC(C)O` (stereo unspecified) and `CCCCN(CCCC)CC(C)O` (stereo unspecified) are within 1.5-fold of each other in LD50: 2580 mg/kg for the first, 1990 mg/kg for the second.

First: CN1C(=O)CN=C(c2ccccc2F)c2c1ccc(NC(=O)N1CCOCC1)c2Cl
Second: CN1CCCN(C(c2ccccc2)c2ccc(Cl)cc2)CC1 (stereo unspecified)
The LD50 of the first is 2.6-fold higher: 1250 mg/kg for the first, 490 mg/kg for the second.

First: CCOC(=O)CN(C)N=O
Second: CCOP(=S)(OCC)SC(=O)CN(C)C(N)=O
The LD50 of the first is 250-fold higher: 4000 mg/kg for the first, 16 mg/kg for the second.

`C1=CC2C3CCC(C3)C2C1` (stereo unspecified) and `OC(c1ccccc1)(c1ccccc1)C1CCNCC1` are within 1.5-fold of each other in LD50: 670 mg/kg for the first, 984 mg/kg for the second.

Going from `NNC(=O)CSc1cc(Oc2ccc(F)cc2)ncn1` to `O=[N+]([O-])c1ccc(Oc2ccc(C(F)(F)F)cc2Cl)cc1`, the LD50 rises from 400 mg/kg to 1000 mg/kg (2.5-fold).

Going from `O=c1[nH]ncc2ccccc12` to `O=c1[nH]c(=O)c2ccccc2o1`, the LD50 rises from 370 mg/kg to 750 mg/kg (2-fold).

Going from `O=C1CCc2cc(C(=O)CCCN3CC=C(c4ccc(Cl)cc4)CC3)ccc2N1` to `CCOC(=O)C1(CCCCCCOc2ccc(Cl)cc2)CO1` (stereo unspecified), the LD50 falls from 500 mg/kg to 250 mg/kg (2-fold).

First: COP(=S)(OC)SCCSC
Second: CCOP(=S)(OCC)SCC(N)=O
The LD50 of the first is 7.5-fold higher: 75 mg/kg for the first, 10 mg/kg for the second.

Compared with `CCCCCCCCCCCCCCCCCC(=O)NCCC[N+](C)(C)CCO`, `CCCCCCCCCCCCCCN(CC)C(C)(CO)CO` is 5.4-fold lower in LD50: 8100 mg/kg for the first, 1500 mg/kg for the second.

First: O=C1c2ccccc2C(=O)N1CC1CO1 (stereo unspecified)
Second: O=COCc1ccccc1
The LD50 of the first is 3.4-fold higher: 4700 mg/kg for the first, 1400 mg/kg for the second.

Compared with `C=CCN1CCc2nc(N)sc2CC1`, `CCc1c(C)[nH]c2c1C(=O)C(CN1CCOCC1)CC2` (stereo unspecified) is 1.5-fold lower in LD50: 403 mg/kg for the first, 261 mg/kg for the second.

Compared with `COc1ccc2c(c1)OC(C)(C)[C@H](c1ccccc1)[C@H]2c1ccc(OCCBr)cc1`, `CCC(C)C(=O)OC1C(OC(C)=O)c2c(ccc3ccc(=O)oc23)OC1(C)C` (stereo unspecified) is 2.4-fold higher in LD50: 500 mg/kg for the first, 1210 mg/kg for the second.

Going from `C=C1CC[C@H](O)C/C1=C/C=C1\CCC[C@]2(C)[C@@H]([C@H](C)/C=C/[C@H](C)C(C)C)CC[C@@H]12` to `CCC(C)N(C(=O)SCc1ccccc1)C(C)CC` (stereo unspecified), the LD50 rises from 10 mg/kg to 10000 mg/kg (1000-fold).

Compared with `CC(O)CC(C)O` (stereo unspecified), `CC[N+](CC)(CC)Cc1ccc(C(C)C(C)c2ccccc2)cc1` (stereo unspecified) is 3.1-fold lower in LD50: 6860 mg/kg for the first, 2180 mg/kg for the second.

Going from `CCC/C=C/C=O` to `N#CC=CCCC#N`, the LD50 falls from 780 mg/kg to 380 mg/kg (2.1-fold).

`CCOP(=O)(OCC)SC` and `COP(=O)(OC)OC(Cl)C(Cl)(Br)Br` (stereo unspecified) are within 1.5-fold of each other in LD50: 47.1 mg/kg for the first, 49 mg/kg for the second.

Compared with `CCCCCCC1=CC(=O)CC(c2ccc3c(c2)OCO3)C1` (stereo unspecified), `O=Cc1ccc2c(c1)OCO2` is 1.9-fold lower in LD50: 5200 mg/kg for the first, 2700 mg/kg for the second.

`CN1CN(CCO)CSC1=S` and `OC[C@@H](O)CN1CCN(c2ccccc2)CC1` are within 1.5-fold of each other in LD50: 1000 mg/kg for the first, 887 mg/kg for the second.

Going from `CCN(CCC#N)c1ccc(N=Nc2nc3ccc(S(C)(=O)=O)cc3s2)c(C)c1` to `O=S(=O)(Nc1ncc(OCCO)cn1)c1ccccc1`, the LD50 rises from 400 mg/kg to 8000 mg/kg (20-fold).

Going from `Cc1cc(Cl)ccc1NC(=S)N(C)C` to `CN(C)c1nc2cc(Cl)ccc2o1`, the LD50 falls from 2500 mg/kg to 800 mg/kg (3.1-fold).

First: O=[N+]([O-])c1cc([N+](=O)[O-])c(Nc2cc(C(F)(F)F)ccc2Cl)c(C(F)(F)F)c1
Second: FC(F)(F)c1ccccc1Br
The LD50 of the first is 29-fold lower: 94 mg/kg for the first, 2720 mg/kg for the second.

For `OCCN(CCO)c1nc(N2CCCCC2)c2nc(N(CCO)CCO)nc(N3CCCCC3)c2n1`, the LD50 is listed as 8400 mg/kg.

In the case of `OCCOCCN1CCN(C(c2ccccc2)c2ccc(Cl)cc2)CC1` (stereo unspecified), the LD50 is listed as 690 mg/kg and 950 mg/kg and 840 mg/kg.
